Reference: ChEMBL document CHEMBL1159120, “2,4-Diamino-5-methyl-6-substituted arylthio-furo[2,3-d]pyrimidines as novel classical and nonclassical antifolates as potential dual thymidylate synthase and dihydrofolate reductase inhibitors” (Bioorg Med Chem, 2010)

Tests used:
Dihydrofolate reductase [1] = target: T1, Dihydrofolate reductase (Rattus norvegicus, UniProt Q920D2)
T1 sequence (Q920D2 whole entry): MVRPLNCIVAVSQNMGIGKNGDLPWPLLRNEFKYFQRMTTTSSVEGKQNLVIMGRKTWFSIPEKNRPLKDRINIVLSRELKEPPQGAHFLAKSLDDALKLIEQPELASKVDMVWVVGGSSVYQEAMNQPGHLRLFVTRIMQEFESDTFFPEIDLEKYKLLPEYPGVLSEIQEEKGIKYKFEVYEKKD
Description: Inhibition of rat liver DHFR at 37 degC by spectrophotometry

Dihydrofolate reductase [2] = target: T2, Dihydrofolate reductase (Pneumocystis carinii, UniProt P16184)
T2 sequence (P16184 whole entry): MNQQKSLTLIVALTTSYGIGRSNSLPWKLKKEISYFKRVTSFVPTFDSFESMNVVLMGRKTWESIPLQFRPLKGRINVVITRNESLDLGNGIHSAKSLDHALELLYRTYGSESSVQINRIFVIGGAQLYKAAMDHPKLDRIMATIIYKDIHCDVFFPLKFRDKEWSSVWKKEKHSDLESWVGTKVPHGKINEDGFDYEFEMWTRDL
Description: Inhibition of Pneumocystis carinii DHFR at 37 degC by spectrophotometry

Dihydrofolate reductase [3] = target: T3, Dihydrofolate reductase (Mycobacterium avium, UniProt O30463)
T3 sequence (O30463 whole entry): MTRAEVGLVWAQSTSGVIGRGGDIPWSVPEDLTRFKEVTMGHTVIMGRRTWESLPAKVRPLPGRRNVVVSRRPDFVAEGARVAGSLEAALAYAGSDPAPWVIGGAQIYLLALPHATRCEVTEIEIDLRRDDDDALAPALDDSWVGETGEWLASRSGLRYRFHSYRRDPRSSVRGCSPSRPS
Description: Inhibition of Mycobacterium avium DHFR at 37 degC by spectrophotometry

Thymidylate synthase = Thymidylate synthase (Homo sapiens, UniProt P04818)
Thymidylate synthase, sequence (P04818 whole entry): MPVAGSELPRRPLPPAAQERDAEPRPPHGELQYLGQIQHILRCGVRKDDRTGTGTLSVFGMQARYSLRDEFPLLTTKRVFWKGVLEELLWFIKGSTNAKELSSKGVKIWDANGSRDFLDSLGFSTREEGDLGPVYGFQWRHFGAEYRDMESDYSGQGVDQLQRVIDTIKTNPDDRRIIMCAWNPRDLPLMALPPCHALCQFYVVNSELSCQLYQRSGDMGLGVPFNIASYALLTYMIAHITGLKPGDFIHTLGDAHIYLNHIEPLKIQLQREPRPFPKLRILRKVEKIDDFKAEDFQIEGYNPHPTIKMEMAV
Description: Inhibition of human thymidylate synthase at 30 degC under pH 7.4 by spectrophotometry

[4] = target: T4, Bifunctional dihydrofolate reductase-thymidylate synthase (Toxoplasma gondii, UniProt Q07422)
T4 sequence (Q07422 whole entry): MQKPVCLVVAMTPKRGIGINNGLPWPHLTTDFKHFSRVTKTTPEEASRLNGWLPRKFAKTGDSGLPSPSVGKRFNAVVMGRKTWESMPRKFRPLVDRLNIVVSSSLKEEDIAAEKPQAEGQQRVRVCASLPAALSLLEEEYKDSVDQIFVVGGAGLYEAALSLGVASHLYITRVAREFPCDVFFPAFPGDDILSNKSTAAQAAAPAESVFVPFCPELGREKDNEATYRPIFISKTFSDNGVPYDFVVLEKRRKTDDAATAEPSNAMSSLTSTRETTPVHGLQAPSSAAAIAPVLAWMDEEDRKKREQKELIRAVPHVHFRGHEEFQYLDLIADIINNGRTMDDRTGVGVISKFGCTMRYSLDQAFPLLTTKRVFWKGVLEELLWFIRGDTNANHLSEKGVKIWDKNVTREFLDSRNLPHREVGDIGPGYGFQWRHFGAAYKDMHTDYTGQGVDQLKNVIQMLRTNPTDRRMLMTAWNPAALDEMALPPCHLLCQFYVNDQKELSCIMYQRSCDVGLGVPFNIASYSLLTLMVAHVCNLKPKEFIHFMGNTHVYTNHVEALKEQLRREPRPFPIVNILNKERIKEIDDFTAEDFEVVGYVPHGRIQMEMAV
Description: Inhibition of Toxoplasma gondii DHFR at 37 degC by spectrophotometry

[5] = target: T5, Dihydrofolate reductase (Pneumocystis carinii) (UniProt P16184); test: Inhibition of Pneumocystis carinii DHFR at 31 uM under 37 degC by spectrophotometry
T5 sequence (whole entry): T2 sequence (P16184 whole entry)

[6] = target: T6, Dihydrofolate reductase (Mycobacterium avium) (UniProt O30463); test: Inhibition of Mycobacterium avium DHFR at 31 uM under 37 degC by spectrophotometry
T6 sequence (whole entry): T3 sequence (O30463 whole entry)

[7] = target: T6, Dihydrofolate reductase (Mycobacterium avium); settings: 196 uM
[8] = target: T7, Dihydrofolate reductase (Rattus norvegicus) (UniProt Q920D2); test: Inhibition of rat liver DHFR at 196 uM under 37 degC by spectrophotometry
T7 sequence (whole entry): T1 sequence (Q920D2 whole entry)

[9] = target: T5, Dihydrofolate reductase (Pneumocystis carinii); test: Inhibition of Pneumocystis carinii DHFR at 20 uM under 37 degC by spectrophotometry
[10] = target: T4, Bifunctional dihydrofolate reductase-thymidylate synthase; remark: listed apart in the source
Dihydrofolate reductase [11] = target: T8, Dihydrofolate reductase (Homo sapiens, UniProt P00374)
T8 sequence (P00374 whole entry): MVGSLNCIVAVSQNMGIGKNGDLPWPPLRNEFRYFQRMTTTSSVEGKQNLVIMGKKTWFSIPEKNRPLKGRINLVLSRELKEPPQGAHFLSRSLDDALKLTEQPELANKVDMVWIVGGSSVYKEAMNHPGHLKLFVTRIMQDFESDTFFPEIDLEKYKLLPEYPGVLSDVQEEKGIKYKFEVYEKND
Description: Inhibition of human DHFR at 30 degC under pH 7.4 by spectrophotometry

[12] = target: T4, Bifunctional dihydrofolate reductase-thymidylate synthase; remark: listed apart in the source
Description: Inhibition of Toxoplasma gondii DHFR at 30 degC under pH 7.4 by spectrophotometry

Dihydrofolate reductase [13] = target: T9, Dihydrofolate reductase (Escherichia coli, UniProt P0ABQ4)
T9 sequence (P0ABQ4 whole entry): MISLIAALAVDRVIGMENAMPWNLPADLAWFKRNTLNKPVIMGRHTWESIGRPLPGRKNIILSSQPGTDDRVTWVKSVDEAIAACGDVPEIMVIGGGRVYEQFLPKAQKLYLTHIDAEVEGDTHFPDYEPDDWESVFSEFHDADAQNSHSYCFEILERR
Description: Inhibition of Escherichia coli DHFR at 30 degC under pH 7.4 by spectrophotometry

Structure (SMILES) | IC50 (Dihydrofolate reductase [1]) | IC50 (Dihydrofolate reductase [2]) | IC50 (Dihydrofolate reductase [3]) | other results
Cc1c(Sc2c(Cl)cccc2Cl)oc2nc(N)nc(N)c12 | 14.4 µM | 60 µM | – | –
COc1ccccc1Sc1oc2nc(N)nc(N)c2c1C | 55.6 µM | 20.3 µM | 23.9 µM | –
Nc1nc(N)c2c(CCc3ccc(C(=O)N[C@@H](CCC(=O)O)C(=O)O)cc3)coc2n1 | – | – | – | IC50 (Thymidylate synthase): > 200 µM
Cc1c(Sc2ccc3ccccc3c2)oc2nc(N)nc(N)c12 | > 12 µM | > 12 µM | – | IC50 [4]: > 12 µM
COc1ccc(OC)c(Sc2oc3nc(N)nc(N)c3c2C)c1 | 42.2 µM | 24 µM | 61.9 µM | –
COc1ccc(Sc2oc3nc(N)nc(N)c3c2C)cc1OC | 66.6 µM | 36.4 µM | 16.3 µM | –
Cc1cccc(C(C)C)c1Sc1oc2nc(N)nc(N)c2c1C | – | 36.5 µM | – | –
Cc1c(Sc2c(F)c(F)c(C(F)(F)F)c(F)c2F)oc2nc(N)nc(N)c12 | 39.1 µM | > 31 µM | – | inhibition [5]: 39%; inhibition [6]: 8%
COc1cccc(Sc2oc3nc(N)nc(N)c3c2C)c1 | 51.3 µM | 25.2 µM | 28.4 µM | –
CN(Cc1coc2nc(N)nc(N)c12)c1ccc(C(=O)N[C@@H](CCC(=O)O)C(=O)O)cc1 [FURO[2,3D]PYRIMIDINE ANTIFOLATE] | – | – | – | IC50 (Thymidylate synthase): > 200 µM
Cc1cccc(C)c1Sc1oc2nc(N)nc(N)c2c1C | > 196 µM | > 20 µM | – | inhibition [7]: 20%; IC50 [4]: 19.7 µM; inhibition [8]: 41%; inhibition [9]: 27%
Nc1nc(N)c2c(CNc3ccc(C(=O)N[C@@H](CCC(=O)O)C(=O)O)cc3)coc2n1 | – | – | – | IC50 (Thymidylate synthase): > 200 µM
Cc1c(Sc2ccc(C(=O)N[C@@H](CCC(=O)O)C(=O)O)cc2)oc2nc(N)nc(N)c12 | 20.5 µM | 0.078 µM | 0.00973 µM | IC50 [10]: 27 µM; IC50 (Dihydrofolate reductase [11]): 4 µM; IC50 [12]: 2.2 µM; IC50 [4]: 12 µM; IC50 (Dihydrofolate reductase [13]): 0.02 µM
Cc1c(Sc2cccc3ccccc23)oc2nc(N)nc(N)c12 | > 83 µM | 8.6 µM | – | IC50 [4]: > 83 µM
COc1ccc(Sc2oc3nc(N)nc(N)c3c2C)cc1 | 61.9 µM | 34.7 µM | 25.5 µM | –
